Measurements: patent US6309882A, “Antisense inhibition of replication protein a p70 subunit” (ISIS Pharmaceuticals, Inc., priority 1999, dated 2001)

Columns and labels:
A549 cells = assay: Tumor cell survival, cell number by hemocytometer; assay type: cell-based, human; conditions: A549, 400 nM, 72 hours
Description: (§1) To determine the effects of ISIS 12790 on tumor cell survival, T24, A549, Mia Paca II, and SW480 cells were treated with either ISIS 12790 or ISIS 13706 (a 20-mer with identical nucleotide composition but containing 7 mismatches relative to the target) and surviving cells counted 72 hours later.
(§2) For experiments where cell number was measured directly by hemocytometer, cells were plated in six well dishes 24 hr prior to the experiment and transfected at approximately 50-70% confluency with various phosphorothioate oligonucleotides at 400 nM, as described above. Following a single transfection, the cells were allowed to recover 72 hours. After 72 hr the cells were washed, trypsinized, and cell number was determined by hemocytometer. For each experiment, treatments were performed in triplicate wells. The number of cells corresponding to each well was determined twice.
(§3) Statistical analysis of mRNA levels and cell survival data were performed using BMDP Statistical package, Version 7.0 (BMDP Statistical Software, Inc., Los Angeles, Calif.). Data were subjected to ANOVA and the results were expressed in terms of F-values, t-values, and significance. For cell survival data, analyses included repeated measurements with 3 between factors (drug, concentration, and position). For mRNA levels only the 3 between factors were considered. Global comparisons were performed with F-tests and pairwise comparisons with t-tests. In each case, since there was no interaction with position, results were pooled and analyzed with two between factors (drug and concentration). Treatment with ISIS 12790 was associated with decreased cell number in all four tumor cell lines (see Table 4). The decrease in cell number observed in T24 cells was 79%. The decrease observed in the other three cell lines was: A549, 98% decrease; Mia Paca II, 85% decrease; SW480, 81% decrease.

Mia Paca II cells = assay: Tumor cell survival, cell number by hemocytometer; assay type: cell-based, human; conditions: 400 nM, 72 hours
Description: as §1, §2, §3

SW480 cells = assay: Tumor cell survival, cell number by hemocytometer; assay type: cell-based, human; conditions: SW480, 400 nM, 72 hours
Description: as §1, §2, §3

T24 cells = assay: Tumor cell survival, cell number by hemocytometer; assay type: cell-based, human; conditions: T24, 400 nM, 72 hours
Description: as §1, §2, §3

HeLa cells = assay: HeLa cell survival, Sulforhodamine B staining; assay type: cell-based, human; conditions: for % Cell Killing / % Cell Survival: SRB, three days
Description: Cells were transfected with matched, mismatched, or non-allele specific anti-RPA70 (ISIS 12790) oligonucleotides as described above. Following transfection, the cells were allowed to recover either three days (HeLa cells) or 6 days (Mia Paca II cells). The number of cells remaining attached to the tissue culture dish was quantified by Sulforhodamine B (SRB) staining (FluoReporter Colorimetric Cell Protein Assay Kit, Molecular probes).
To determine the effect of variance-specific antisense oligonucleotides on cell survival, cells were treated with oligonucleotides and cell survival measured by Sulforhodamine B staining. […] At the maximum concentration of ISIS 12781, 400 nM, there was an 84% reduction of surviving cells. […] After treatment with 400 nM oligonucleotide, the amount of cells remaining with VAR 13085 was 3.1-fold higher than with ISIS 12781. […] The IC50 for the decrease was less than 100 nM. The IC50s for inhibition of HeLa cell survival correlated with the IC50s for RPA70 mRNA suppression by both ISIS 12781 and ISIS 12790 oligonucleotides.

Mia Paca II tumors = Mia Paca II tumors in NMRI nu/nu mice; assay type: in vivo
Description: Delivery of oligonucleotide was continuous for 14 days. The dosage of oligonucleotide was 10 mg/kg/day. Each sample set contained three mice. Tumor volume was measured regularly and after two weeks, the tumors were taken out and weighed.

ISIS 12790: phosphorothioate oligodeoxynucleotide TGGTCTGCAGTTAGGGTCAG, SEQ ID NO 15, 3'-UTR 2230-2249, non-allele specific (DNA, all phosphorothioate, methylation of C not given here)
% Cell Killing (A549 cells): 98% | % Cell Survival (A549 cells): 2% | decrease in cell number (A549 cells): 98% | decrease in cell number (Mia Paca II cells): 85% | % Cell Killing (SW480 cells): 81% | % Cell Survival (SW480 cells): 19% | decrease in cell number (SW480 cells): 81% | % Cell Killing (T24 cells): 79% | % Cell Survival (T24 cells): 21% | decrease in cell number (T24 cells): 79% | effect on cell survival (HeLa cells; HeLa cells): dose-dependent reduction in the number of surviving cells | IC50 (HeLa cells; HeLa cells, read-out: IC50 for decrease in cell survival): < 100 nM | % Cell Killing (HeLa cells; HeLa, 50 nM): 77% | % Cell Survival (HeLa cells; HeLa, 50 nM): 23% | % Cell Killing (HeLa cells; HeLa, 100 nM): 66% | % Cell Survival (HeLa cells; HeLa, 100 nM): 34% | % Cell Killing (HeLa cells; HeLa, 200 nM): 89% | % Cell Survival (HeLa cells; HeLa, 200 nM): 11% | reduction of surviving cells (HeLa cells; HeLa, 400 nM): 90% | % Cell Killing (HeLa cells; HeLa, 400 nM): 89% | % Cell Survival (HeLa cells; HeLa, 400 nM): 11% | effect on tumor progression (Mia Paca II tumors; 10 mg/kg/day for 14 days): delayed tumor progression over the two week period compared to a saline control | average final weight of the tumors (Mia Paca II tumors; after two weeks, 10 mg/kg/day, saline control 297 mg): 161 mg | Tumor volume (Mia Paca II tumors; day 0, 10 mg/kg/day osmotic minipump): 134 mm^3 | Tumor volume (Mia Paca II tumors; day 1, 10 mg/kg/day osmotic minipump): 186 mm^3 | Tumor volume (Mia Paca II tumors; day 2, 10 mg/kg/day osmotic minipump): 220 mm^3 | Tumor volume (Mia Paca II tumors; day 6, 10 mg/kg/day osmotic minipump): 252 mm^3 | Tumor volume (Mia Paca II tumors; day 7, 10 mg/kg/day osmotic minipump): 290 mm^3 | Tumor volume (Mia Paca II tumors; day 9, 10 mg/kg/day osmotic minipump): 370 mm^3 | Tumor volume (Mia Paca II tumors; day 13, 10 mg/kg/day osmotic minipump): 358 mm^3 | Tumor volume (Mia Paca II tumors; day 14, 10 mg/kg/day osmotic minipump): 331 mm^3 | inhibition of tumor growth (Mia Paca II tumors; two week period, compared to saline control): approximately 40%
